This assay is described as follows: Inhibition of potato tuber 5LOX by polarographic method. Further details: species or system Solanum tuberosum.

pIC50: −log10 of the molar value.

Consider `CCN(C)C(=O)c1cc(C(C)(C)C)c2c(c1)C(C)(C)CO2`, for which the pIC50 is 4.66. As for `O=C1NCCN(c2cccc([N+](=O)[O-])c2)N1`, the pIC50 was 4.31. Under `CC1CN(c2cccc(Cl)c2)NC(=O)N1` (centres undefined) stands 5.57; under `O=C1NCCN(c2cccc(F)c2)N1`, 4.72. To `O=C1NCCN(c2ccccn2)N1` belongs 4.59.

Regarding `CSc1cccc(N2CCNC(=O)N2)c1`, the pIC50 was 4.85. `Cc1cccc(N2CCNC(=O)N2)c1`: the pIC50 was 4.82.

In turn, `COCCOCC1CN(c2ccccc2)NC(=O)N1` (centres undefined) had a pIC50 of 4.85. For `COC1(c2cccc(COc3ccc4c(-c5ccccc5)c5c(cc4c3)C(=O)OC5)c2)CCOCC1`, the pIC50 was 7.85. For `COc1ccc(C(=O)/C=C/c2ccc(O)c(O)c2)c(OC)c1`, the pIC50 was 7.40. Under `Nc1cccc(N2CCNC(=O)N2)c1` stands 3.75; under `CC(C)(C)c1cc(C(=O)CCCC2CC2)cc2c1OCC2(C)C`, 4.17. As to `CCCC(=O)c1cc(C(C)(C)C)c2c(c1)C(C)(C)CO2`, the pIC50 is 5.07. Under `CC1Cc2c(OCc3ccc(-c4ccccc4)cn3)ccc3c2c(c(CCOc2ccccc2CC(=O)O)n3Cc2cccc(F)c2)S1` (centres undefined) stands 7.64; under `CC(C)(C)c1cc(C(=O)CCCC2CC2)cc2c1OCCC2(C)C`, 5.10; under `CS(=O)(=O)c1ccc(C#CC(=O)c2ccccc2)cc1`, 6.00. Compound `Cc1nccn1-c1ccc(Sc2cccc(C3(C(N)=O)CCOCC3)c2)cc1` had a pIC50 of 6.85. To `NS(=O)(=O)c1ccc(N2N=C(C(F)(F)F)CC2c2c[nH]c3ccccc23)cc1` (centres undefined) belongs 4.39; to `CC1(C)Cc2c(-c3ccccc3)c(-c3ccc([N+](=O)[O-])cc3)c(CC(=O)O)n2C1`, 5.82; to `O=C(O)Cc1c(-c2ccc(Cl)cc2)c(-c2ccccc2)c2n1CCC2`, 5.80. `FC(F)(F)c1cccc(Nc2ccccc2-c2n[nH]c(=S)o2)c1` had a pIC50 of 6.11. The compound `FC(F)(F)c1cccc(Nc2ccccc2-c2n[nH]c(=S)s2)c1` gave a pIC50 of 6.11. To `CCN1CC/C(=C/c2cc(C(C)(C)C)c(O)c(C(C)(C)C)c2)S1(=O)=O` belongs 5.60. Consider `Cc1cc(C)cc(N2CCNC(=O)N2)c1`, for which the pIC50 is 4.92.

In the case of `COc1cccc(N2CC(C)NC(=O)N2)n1` (centres undefined), the pIC50 is 5.26.

For the compound `O=C1NCCN(c2ccccc2)N1`, the pIC50 was 4.68. To `CCCCC1CN(c2ccccc2)NC(=O)N1` (centres undefined) belongs 5.82; to `CS(=O)(=O)c1ccc(C#CC(=O)c2cccc(O)c2)cc1`, 6.52; to `COC1(c2cc(F)cc(OCCc3c[nH]c4ccccc34)c2)CCOCC1`, 6.07.

`COC1(c2cc(F)cc(OCc3cc(-c4ccccc4)n(-c4ccc(S(C)(=O)=O)cc4)n3)c2)CCOCC1` showed a pIC50 of 8.52. To `COc1ccc2c(c1)c(CCN(O)C(N)=O)c(C)n2C(=O)c1ccc(Cl)cc1` belongs 6.40; to `NS(=O)(=O)c1ccc(C#Cc2ccc(=O)n(C(F)F)c2)cc1`, 5.46.

As for `CS(=O)(=O)c1ccc(-n2nc(C(F)(F)F)cc2-c2ccn(O)c(=O)c2)cc1`, the pIC50 is 6.46. Regarding `NS(=O)(=O)c1ccc(-n2nc(C(F)(F)F)cc2-c2ccn(O)c(=O)c2)cc1`, the pIC50 was 5.31. `NS(=O)(=O)c1cccc(C#Cc2ccc(=O)n(O)c2)c1` showed a pIC50 of 4.82. To `COc1ccc(-c2cnsc2-c2ccc(OC)cc2)cc1` belongs 4.70. To `CS(=O)(=O)c1ccc(C#Cc2ccc(=O)n(C(F)F)c2)cc1` belongs 5.48. For the compound `CS(=O)(=O)c1cccc(C#Cc2ccc(=O)n(C(F)F)c2)c1`, the pIC50 is 5.49. To `CCOC(=O)c1c(Cc2ccc(OC)cc2)[nH]c2c1cc(O)c1ccccc12` belongs 6.82. The compound `CCOC(=O)c1c(Cc2cccc(Cl)c2)[nH]c2cc(-c3ccccc3)c(O)cc12` gave a pIC50 of 5.92. For `COC(=O)c1c(Nc2cccc(Cl)c2)[nH]c2ccc(O)cc12`, the pIC50 is 6.52. `NS(=O)(=O)c1ccccc1C#Cc1ccc(=O)n(O)c1`: the negative logarithm of the IC50 (pIC50) is 5.00. `COc1ccc(-c2ssc(=S)c2-c2ccc(OC)cc2)cc1` had a pIC50 of 5.00.

Compound `Cc1ccc(-c2c(-c3ccc(S(C)(=O)=O)cc3)ssc2=S)cc1` had a negative-log IC50 (pIC50) of 5.05. To `CCOC(=O)c1c(Cc2cccc(Cl)c2)[nH]c2ccc(O)cc12` belongs 5.70; to `NS(=O)(=O)c1ccc(C#Cc2ccc(=O)n(O)c2)cc1`, 4.17; to `COc1ccc(-c2sncc2-c2ccc(C)cc2)cc1`, 5.10. To `CS(=O)(=O)c1ccccc1C#Cc1ccc(=O)n(C(F)F)c1` belongs 5.47; to `CC1Cc2c(CCc3ccc(-c4ccccc4)cn3)ccc3c2C(S1)C(CC(C)(C)Cc1nnn[nH]1)N3Cc1ccc(Cl)cc1` (centres undefined), 7.80; to `CC1Cc2c(OCc3ccc(-c4ccccc4)cn3)ccc3c2C(S1)C(CC(C)(C)CC(=O)NS(C)(=O)=O)N3Cc1ccc(Cl)cc1` (centres undefined), 7.44. Under `CS(=O)(=O)Nc1ccc(Oc2ccc(F)cc2)s1` stands 6.89. In the case of `O=C1NCCN(c2ccoc2-c2ccccc2)N1`, the pIC50 is 5.31. For `COc1cc(/C=C\C=C\c2nc3ncccc3o2)ccc1O`, the pIC50 is 6.43. The compound `O=C1NCCN(c2ncccc2-c2cccs2)N1` showed a negative-log IC50 (pIC50) of 5.09.

The compound `CC(C)(C)OC(=O)N1CCN(C(=O)CCCC2=CCc3ccccc32)CC1` gave a pIC50 of 6.13.

`O=C1NCCN(c2cccnc2-c2ccccc2)N1` had a pIC50 of 4.52. With `CCOC(=O)c1ccc2oc(/C=C/C=C\c3ccc(O)c(O)c3)nc2c1`, the pIC50 was 7.70.

Turning to `NC(=O)C1(c2cccc(Sc3ccc(-n4cccc4)cc3)c2)CCOCC1`, the pIC50 was 6.57. `Cc1ccc(-c2c(-c3ccc(S(C)(=O)=O)cc3)cn3c2CCC3)cc1` had a pIC50 of 5.00. As for `O=C(CC1=CC(Cc2ccc(Cl)c(Cl)c2)c2ccccc21)N1CCOCC1` (centres undefined), the negative logarithm of the IC50 (pIC50) was 6.06. Under `CC1=C(CCCC(=O)N2CCOCC2)c2cc(Cl)ccc2C1Cc1ccccc1` (centres undefined) stands 6.02; under `CC1(C)CCC[C@@]2(C)C1CCC(C=O)[C@@H]2CC=C(C=O)C=O` (some centres undefined), 5.12; under `COC1(c2cc(F)cc(OCC3=NN(c4ccccc4)C(c4ccccc4)C3)c2)CCOCC1` (centres undefined), 6.24.

`CC(C)(C)c1cc(C(=O)CCCC#N)cc2c1OCC2(C)C` showed a pIC50 of 5.22. `COc1cc(/C=C\C=C\c2nc3ccccc3o2)ccc1O` gave a pIC50 of 6.48.

In the case of `CCOC(=O)c1ccc2nc(/C=C/C=C\c3ccc(O)c(OC)c3)oc2c1`, the pIC50 is 6.89. `COc1cc(O)cc(/C=C/C=C/C(=O)NCCN2CCC(OC(c3ccccc3)c3ccccc3)CC2)c1` had a pIC50 of 6.82. `O=C(CCCC1=CCc2ccccc21)N1CCOCC1` gave a pIC50 of 5.69.

For the compound `CC(C)(C)c1cc(Cc2cccs2)cc2c1OCC2(C)C`, the negative logarithm of the IC50 (pIC50) was 4.17. To `COc1cc(/C=C\C=C\c2nc3ccc(CO)cc3o2)ccc1O` belongs 6.52; to `CC(=O)Nc1ccc(/C(=C/c2ccc(S(C)(=O)=O)cc2)C(=O)O)cc1`, 6.96; to `COC1(c2cccc(OCc3ccc4ccccc4c3)c2)CCOCC1`, 8.00. In the case of `N#Cc1cc(-c2ccoc2)c2ccc(OCc3cccc(C4(O)CCOCC4)n3)cc2c1`, the pIC50 is 7.82.

As for `O=C(O)/C=C/c1ccc(O)c(O)c1` [CAFFEIC ACID], the pIC50 is 5.40. `Cc1ccc(-c2cc(C(F)(F)F)nn2-c2ccc(S(N)(=O)=O)cc2)cc1` [CELECOXIB]: the negative-log IC50 (pIC50) is 5.00.

Consider `CC1(C)Cc2c(-c3ccccc3)c(-c3ccc(Cl)cc3)c(CC(=O)O)n2C1` [LICOFELONE], for which the pIC50 is 6.74. Compound `CS(=O)(=O)Nc1ccc([N+](=O)[O-])cc1OC1CCCCC1` [NS-398] had a pIC50 of 5.00. Compound `C#CCCCC(=O)c1cc(C(C)(C)C)c(O)c(C(C)(C)C)c1` [TEBUFELONE] showed a pIC50 of 5.52. To `COC1(c2cc(F)cc(OCc3ccc4c(ccc(=O)n4C)c3)c2)CCOCC1` [ZD-2138] belongs 6.48.
